In patent publication US8921406B2, “5-ring heteroaromatic compounds and their use as binding partners for 5-HT5 receptors” (AbbVie Deutschland GmbH & Co. KG, priority 2005, dated 2014) one finds Ki data, which are given here for 20 molecules.

Molecules are shown by their SMILES. Where a name gives a salt, the structure may show the parent alone.

The target of this assay is T1, h5-HT5A receptor (Homo sapiens, UniProt P47898).
T1 construct: expressed in transfected cells
T1 sequence (P47898 whole entry): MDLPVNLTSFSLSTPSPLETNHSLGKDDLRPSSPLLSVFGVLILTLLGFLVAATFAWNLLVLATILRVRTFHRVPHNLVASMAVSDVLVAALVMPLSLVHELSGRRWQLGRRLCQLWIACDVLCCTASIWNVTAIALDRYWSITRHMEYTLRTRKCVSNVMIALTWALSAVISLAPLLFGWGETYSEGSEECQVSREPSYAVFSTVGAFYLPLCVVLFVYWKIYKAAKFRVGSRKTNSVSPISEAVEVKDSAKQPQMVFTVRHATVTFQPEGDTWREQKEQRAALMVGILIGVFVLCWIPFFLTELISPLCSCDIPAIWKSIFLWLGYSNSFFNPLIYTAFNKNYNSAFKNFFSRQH
In words: h5-HT5A-[3H]5-CT binding assay. Conditions: membranes of HEK293 cells expressing h5-HT5A; 2.5 nM [3H]5-CT; read-out: Binding affinity 5-HT5A (Ki). Here is the method:
1. h5-HT5A-[^3H]5-CT Binding Assay
Membranes of HEK293 cells which permanently express the h5-HT5A receptor gene were incubated in 100 mM tris-HCl buffer (pH 7.7) containing 1 mM EDTA, in the presence of 2.5 nM [^3H]5-CT (total volume 600 μL). The total binding is defined as the binding that is observed when the membranes are incubated in the presence of only the radioligand. The inhibition induced by the compound is determined by incubation of cell membranes in the presence of the radioligand and various concentrations of the compound of interest. Nonspecific binding is defined as the [^3H]5-CT binding obtained by incubation of the membranes, the same as for the total binding, but in the presence of 10 μM methiothepine. Following incubation for 75 min at 30° C., the membrane suspension was filtered through a GF/B-Filter coated with 0.03% PEI, using a Skatron® harvesting system. The residual radioactivity in the filter was quantified by liquid scintillation counting.
Various concentrations of the test substances were used in both assays, and the Ki or IC50 values were determined.
For orientation: Ki means the equilibrium dissociation constant of an inhibitor or competing ligand from its target. Consider `COc1ccccc1Cn1cc(-c2cccc([N+](=O)[O-])c2)nc1N` [Example 45, 1-(2-Methoxybenzyl)-4-(3-nitrophenyl)-1H-imidazole-2-ylamine], for which the Ki is under 600 nM.

Consider `COc1ccccc1Cn1cc(-c2ccc(OC(F)F)cc2)nc1N` [Example 46, 4-(4-Difluoromethoxyphenyl)-1-(2-methoxybenzyl)-1H-imidazole-2-ylamine], for which the Ki is under 600 nM.

For `COc1ccccc1Cn1cc(-c2csc(-c3ccccc3)n2)nc1N` [Example 47, 1-(2-Methoxybenzyl)-4-(2-phenylthiazole-4-yl)-1H-imidazole-2-ylamine], the inhibition constant Ki is under 600 nM.

With `COc1ccccc1Cn1cc(-c2ccc(OCc3ccccc3)cc2)nc1N` [Example 48, 4-(4-Benzyloxyphenyl)-1-(2-methoxybenzyl)-1H-imidazole-2-ylamine], the Ki was under 600 nM.

On to `COc1ccccc1Cn1cc(-c2nccs2)nc1N` [Example 49, 1-(2-Methoxybenzyl)-4-thiazole-2-yl-1H-imidazole-2-ylamine hydrochloride], for which the inhibition constant (Ki) is under 600 nM.

Regarding `COc1ccccc1Cn1cc(-c2ccc(C#N)s2)nc1N` [Example 50, 5-[2-Amino-1-(2-methoxybenzyl)-1H-imidazole-4-yl]thiophene-2-carbonitrile], the Ki was under 600 nM.

For the molecule `COc1ccccc1Cn1cc(-c2cccc(N)c2)nc1N` [Example 51, 4-(3-Aminophenyl)-1-(2-methoxybenzyl)-1H-imidazole-2-ylamine], the Ki is under 600 nM.

As to `COc1cccc(OC)c1Cn1cc(-c2cc(C)cs2)nc1N` [Example 52, 1-(2,6-Dimethoxybenzyl)-4-(4-methylthiophene-2-yl)-1H-imidazole-2-ylamine], the Ki was under 600 nM.

Take `COc1ccccc1Cn1cc(-c2ccc(N)cc2)nc1N` [Example 53, 4-(4-Aminophenyl)-1-(2-methoxybenzyl)-1H-imidazole-2-ylamine hydrochloride]: the Ki was under 600 nM.

Turning to `COc1cc([N+](=O)[O-])ccc1Cn1cc(-c2ccc(C#N)cc2)nc1N` [Example 54, 4-[2-Amino-1-(2-methoxy-4-nitrobenzyl)-1H-imidazole-4-yl]benzonitrile], the inhibitory constant (Ki) is over 600 nM.

Consider `COc1ccccc1Cn1cc(-c2cccc(NS(=O)(=O)c3ccc(C(C)C)cc3)c2)nc1N` [Example 55, N-{3-[2-Amino-1-(2-methoxybenzyl)-1H-imidazole-4-yl]phenyl}-4-isopropylbenzenesulfonamide], for which the Ki is under 600 nM.

Regarding `COc1ccccc1Cn1cc(-c2cccc(NS(=O)(=O)c3ccccc3)c2)nc1N` [Example 56, N-{3-[2-Amino-1-(2-methoxybenzyl)-1H-imidazole-4-yl]phenyl}benzenesulfonamide], the Ki is under 600 nM.

On to `COc1ccccc1Cn1cc(-c2cccc(NS(C)(=O)=O)c2)nc1N` [Example 57, N-{3-[2-Amino-1-(2-methoxybenzyl)-1H-imidazole-4-yl]phenyl}methanesulfonamide], for which the inhibitory constant (Ki) was under 600 nM.

As to `COc1ccccc1Cn1cc(-c2cccc(NC(=O)c3ccccc3)c2)nc1N` [Example 58, N-{3-[2-Amino-1-(2-methoxybenzyl)-1H-imidazole-4-yl]phenyl}benzamide], the inhibition constant (Ki) was under 600 nM.

Consider `COc1ccccc1Cn1cc(-c2ccc(NS(=O)(=O)c3ccccc3)cc2)nc1N` [Example 59, N-{4-[2-Amino-1-(2-methoxybenzyl)-1H-imidazole-4-yl]phenyl}benzenesulfonamide], for which the Ki was under 600 nM.

For the molecule `COc1ccccc1Cn1cc(-c2cccc(NS(=O)(=O)c3cccs3)c2)nc1N` [Example 60, Thiophene-2-sulfonic acid {3-[2-amino-1-(2-methoxybenzyl)-1H-imidazole-4-yl]phenyl}amide], the inhibition constant Ki was under 600 nM.

In the case of `COc1ccccc1Cn1cc(-c2cccnc2)nc1N` [Example 61, 1-(2-Methoxybenzyl)-4-pyridine-3-yl-1H-imidazole-2-ylamine], the inhibition constant (Ki) was under 600 nM.

Regarding `COc1ccc(-c2nc(Cc3ccccc3OC)c(N)[nH]2)cc1` [Example 62, 5-(2-Methoxybenzyl)-2-(4-methoxyphenyl)-3H-imidazole-4-ylamine hydrochloride], the inhibition constant Ki was over 600 nM.

As to `COc1ccccc1Cn1cc(-c2cccc(NS(=O)(=O)c3ccc(-c4ccccc4)cc3)c2)nc1N` [Example 63, Biphenyl-4-sulfonic acid {3-[2-amino-1-(2-methoxybenzyl)-1H-imidazole-4-yl]phenyl}amide], the Ki is under 600 nM.

In the case of `COc1ccccc1Cn1cc(-c2cccc(NS(=O)(=O)C(C)C)c2)nc1N` [Example 64, Propane-2-sulfonic acid {3-[2-amino-1-(2-methoxybenzyl)-1H-imidazole-4-yl]phenyl}amide], the Ki was under 600 nM.
